The target of test [1] is T1, menin/MLL binding (biotinylated wild-type or mutated menin and MLL-AF9 fusion protein) (Homo sapiens, UniProt O00255).
T1 construct: biotinylated (1) wild-type menin or (2) mutated menin (described in Nature (2012) Vol. 482, pp. 542-548); fused on or other part: Biotin attached chemically (Sulfo-NHS-Biotin); no fused second protein is printed for menin
T1 sequence (O00255 1-459 limits assumed): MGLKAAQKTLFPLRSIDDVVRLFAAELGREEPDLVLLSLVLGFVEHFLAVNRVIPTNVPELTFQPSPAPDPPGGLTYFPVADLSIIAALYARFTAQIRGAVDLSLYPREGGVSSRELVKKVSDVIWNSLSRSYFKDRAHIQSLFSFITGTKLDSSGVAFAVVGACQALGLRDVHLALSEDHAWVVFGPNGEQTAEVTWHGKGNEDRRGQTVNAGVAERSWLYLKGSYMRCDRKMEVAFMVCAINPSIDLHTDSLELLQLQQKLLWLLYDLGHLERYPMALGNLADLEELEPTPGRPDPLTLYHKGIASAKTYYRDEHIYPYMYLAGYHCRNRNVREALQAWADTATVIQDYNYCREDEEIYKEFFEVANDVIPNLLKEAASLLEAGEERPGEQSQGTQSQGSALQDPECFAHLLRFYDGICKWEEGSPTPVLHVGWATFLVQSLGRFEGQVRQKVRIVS
The experiment in a line: Assay 1 (Binding Assay): AlphaLISA menin/MLL binding. The settings on record: 5 nM biotinylated menin, MLL-AF9-FLAG lysate. The essentials:
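Biotinylated E. coli-expressed menin (wild-type or mutant), 5 nM, incubated 30 min RT with compound and HEK293 lysate of MLL1-1,396–AF9-FLAG in pH 7.4 Tris buffer, 5% DMSO, 1 mM DTT. Anti-FLAG acceptor and streptavidin donor beads added, 60 min RT, AlphaLISA signal read. IC50 from four-parameter fit of % inhibition.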

Test [2] has as its system human acute monocytic leukemia cell line MV-4-11. The experiment in a line: Assay 2 (Cell Proliferation Assay), ATP quantitation (CellTiter-Glo). Format: cell-based. The settings on record: Homo sapiens, MV4-11, 72 h, MV-4-11 cells, read-out: Assay 2 (EC50, inhibition of cell proliferation). The procedure, abridged:
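Cells (1.67×10^4/well, 10% FBS medium) incubated ±compound 72 h at 37 °C, 5% CO2; HL-60 served as toxicity control. ATP read by CellTiter-Glo luminescence; % inhibition scaled between DMSO and a potent menin inhibitor at ≥100×LD50.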
(In general: In ATP-based viability assays light output follows the ATP content of the culture.)

As usually defined, the IC50 is the point on the concentration scale where inhibition reaches its midpoint.

Regarding `CC(C)N(C)C(=O)c1cc(F)ccc1-n1cc(C2CCN(CCN3CCC(NS(C)(=O)=O)CC3)CC2)c2ccncc21` [Example 93, 5-fluoro-N-isopropyl-N-methyl-2-(3-(1-(2-(4-(methylsulfonamido)piperidin-1-yl)ethyl)piperidin-4-yl)-1H-pyrrolo[2,3-c]pyridin-1-yl)benzamide], the IC50 in test [1] was below 100 nM. Moreover, in test [2], the EC50 lay in the range of 100 to 1000 nM.
The like results for `CC(C)N(C)C(=O)c1cc(F)ccc1-n1cc(C2CCN(CCC3CCOCC3)CC2)c2ccncc21` [Example 6, 5-fluoro-N-isopropyl-N-methyl-2-(3-(1-(2-(tetrahydro-2H-pyran-4-yl)ethyl)piperidin-4-yl)-1H-pyrrolo[2,3-c]pyridin-1-yl)benzamide] were, in that order, below 100 nM and 100 to 1000 nM.
`CC(C)N(C)C(=O)c1cc(F)ccc1-n1cc(C2CCCN(C[C@H]3CC[C@H](NS(C)(=O)=O)CC3)CC2)c2ccncc21` (relative stereo) [Example 41, 5-fluoro-N-isopropyl-N-methyl-2-(3-(1-((trans-4-(methylsulfonamido)cyclohexyl)methyl)azepan-4-yl)-1H-pyrrolo[2,3-c]pyridin-1-yl)benzamide]: the IC50 in test [1] is below 100 nM. For the same molecule, in test [2], the EC50 was below 100 nM.
`CC(C)N(C)C(=O)c1cc(F)ccc1-n1cc(C2CCCN(Cc3ccccc3)C2)c2ccncc21` (stereo not drawn) [Example 45, 2-(3-(1-benzylpiperidin-3-yl)-1H-pyrrolo[2,3-c]pyridin-1-yl)-5-fluoro-N-isopropyl-N-methylbenzamide] yielded an IC50 in test [1] below 100 nM. For the same molecule, in test [2], the EC50 was 100 to 1000 nM.
`CC(C)N(C(=O)c1cc(F)ccc1-n1cc(C2CCN(C[C@H]3CC[C@H](NS(C)(=O)=O)CC3)C2)c2ccncc21)C(C)C` (stereo partly drawn) [Example 127, 5-fluoro-N,N-diisopropyl-2-(3-(1-((trans-4-(methylsulfonamido)cyclohexyl)methyl)pyrrolidin-3-yl)-1H-pyrrolo[2,3-c]pyridin-1-yl)benzamide] displayed a half-inhibitory concentration (IC50) in test [1] below 100 nM. Further, the EC50 in test [2] was below 100 nM.
In test [1], `CC(C)N(C)C(=O)c1cc(F)ccc1-n1cc(C2CCN(Cc3ccccc3Cl)CC2)c2ccncc21` [Example 15, 2-(3-(1-(2-chlorobenzyl)piperidin-4-yl)-1H-pyrrolo[2,3-c]pyridin-1-yl)-5-fluoro-N-isopropyl-N-methylbenzamide] showed a half-maximal inhibitory concentration (IC50) below 100 nM. The EC50 in test [2] was 100 to 1000 nM.
`CC(C)N(C)C(=O)c1cc(F)ccc1-n1cc(C2CCN(Cc3ccc4[nH]c(=O)[nH]c4c3)C2)c2ccncc21` (stereo not drawn) [Example 122, 5-fluoro-N-isopropyl-N-methyl-2-(3-(1-((2-oxo-2,3-dihydro-1H-benzo[d]imidazol-5-yl)methyl)pyrrolidin-3-yl)-1H-pyrrolo[2,3-c]pyridin-1-yl)benzamide]: in test [1], the IC50 was below 100 nM. The EC50 in test [2] is below 100 nM.
In the case of `CC(C)N(C)C(=O)c1cc(F)ccc1-n1cc(C2CCN(Cc3ccc4[nH]c(=O)[nH]c4c3)CC2)c2ccncc21` [Example 5, 5-fluoro-N-isopropyl-N-methyl-2-(3-(1-((2-oxo-2,3-dihydro-1H-benzo[d]imidazol-5-yl)methyl)piperidin-4-yl)-1H-pyrrolo[2,3-c]pyridin-1-yl)benzamide], the IC50 in test [1] was below 100 nM. Besides, the EC50 in test [2] lay within 100 to 1000 nM.
In test [1], `CC(C)N(C)C(=O)c1cc(F)ccc1-n1cc(C2CCN(CC[C@H]3CC[C@H](NS(C)(=O)=O)CC3)CC2)c2ccncc21` [Example 19, 5-fluoro-N-isopropyl-N-methyl-2-(3-(1-(2-(trans-4-(methylsulfonamido)cyclohexyl)ethyl)piperidin-4-yl)-1H-pyrrolo[2,3-c]pyridin-1-yl)benzamide] came in with a 50% inhibitory concentration (IC50) below 100 nM. In test [2], the EC50 is below 100 nM.
With `Cc1c(CN2CCC(c3cn(-c4ccc(F)cc4CC(C)C)c4cnccc34)CC2)ccc2[nH]c(C#N)cc12` [Example 42, 5-((4-(1-(4-fluoro-2-isobutylphenyl)-1H-pyrrolo[2,3-c]pyridin-3-yl)piperidin-1-yl)methyl)-4-methyl-1H-indole-2-carbonitrile], the IC50 in test [1] was below 100 nM. In test [2], the EC50 is 100 to 1000 nM.
In turn, `CC(C)N(C)C(=O)c1cc(F)ccc1-n1cc(C2CCN(Cc3ccc4[nH]c(C#N)cc4c3)CC2)c2ccncc21` [Example 7, 2-(3-(1-((2-cyano-1H-indol-5-yl)methyl)piperidin-4-yl)-1H-pyrrolo[2,3-c]pyridin-1-yl)-5-fluoro-N-isopropyl-N-methylbenzamide] registered an IC50 in test [1] below 100 nM. The EC50 in test [2] was below 100 nM.
In the case of `CC(C)N(C(=O)c1cc(F)ccc1-n1cc(C2CN(CC[C@H]3CC[C@H](NS(C)(=O)=O)CC3)C2)c2ccncc21)C(C)C` [Example 137, 5-fluoro-N,N-diisopropyl-2-(3-(1-(2-((1r,4r)-4-(methylsulfonamido)cyclohexyl)ethyl)azetidin-3-yl)-1H-pyrrolo[2,3-c]pyridin-1-yl)benzamide], the concentration for half-maximal inhibition (IC50) in test [1] was below 100 nM. Also, the EC50 in test [2] is below 100 nM.
As for `CCN(C(=O)c1cc(F)ccc1-n1cc(C2CCCN(Cc3ccc4[nH]c(=O)[nH]c4c3)C2)c2ccncc21)C(C)C` (single isomer, unassigned) [Example 47A], the IC50 in test [1] was below 100 nM. The EC50 in test [2] was below 100 nM.
`CCN(C(=O)c1cc(F)ccc1-n1cc([C@H]2CCCN(Cc3ccc4c(c3)[nH]c(=O)n4CCO)C2)c2ccncc21)C(C)C` [Example 49B, (R)-N-ethyl-5-fluoro-2-(3-(1-((1-(2-hydroxyethyl)-2-oxo-2,3-dihydro-1H-benzo[d]imidazol-5-yl)methyl)piperidin-3-yl)-1H-pyrrolo[2,3-c]pyridin-1-yl)-N-isopropylbenzamide]: the half-maximal inhibitory concentration (IC50) in test [1] is below 100 nM. In addition, the EC50 in test [2] was below 100 nM.
In test [1], `CCN(C(=O)c1cc(F)ccc1-n1cc(C2CCN(C[C@H]3CC[C@H](NS(C)(=O)=O)CC3)C2)c2ccncc21)C(C)C` (stereo partly drawn) [Example 125, N-ethyl-5-fluoro-N-isopropyl-2-(3-(1-((trans-4-(methylsulfonamido)cyclohexyl)methyl)pyrrolidin-3-yl)-1H-pyrrolo[2,3-c]pyridin-1-yl)benzamide] had an IC50 below 100 nM. Further, in test [2], the EC50 was below 100 nM.
Take `CC(=O)OCCn1c(=O)[nH]c2cc(CN3CCC[C@H](c4cn(-c5ccc(F)cc5C(=O)N(C)C(C)C)c5cnccc45)C3)ccc21` [Example 85, (R)-2-(5-((3-(1-(4-fluoro-2-(isopropyl(methyl)carbamoyl)phenyl)-1H-pyrrolo[2,3-c]pyridin-3-yl)piperidin-1-yl)methyl)-2-oxo-2,3-dihydro-1H-benzo[d]imidazol-1-yl)ethyl acetate]: in test [1], the 50% inhibitory concentration (IC50) is below 100 nM. Moreover, the EC50 in test [2] was below 100 nM.
As to `CC(C)N(C)C(=O)c1cc(F)ccc1-n1cc(C2CCN(C[C@H]3CC[C@H](NS(C)(=O)=O)CC3)CC2)c2ccncc21` [Example 21, 5-fluoro-N-isopropyl-N-methyl-2-(3-(1-((trans-4-(methylsulfonamido)cyclohexyl)methyl)piperidin-4-yl)-1H-pyrrolo[2,3-c]pyridin-1-yl)benzamide], in test [1], the IC50 is below 100 nM. Also, the EC50 in test [2] lay within 100 to 1000 nM.
The like results for `CC(C)N(C)C(=O)c1cc(F)ccc1-n1cc([C@H]2CCCN(Cc3ccc4c(c3)[nH]c(=O)n4CCO)C2)c2ccncc21` (single isomer, unassigned) [Example 44A] were, in that order, below 100 nM and below 100 nM.

Source of the values: patent US10899758B2, “Inhibitors of the menin-MLL interaction” (Vitae Pharmaceuticals, LLC, priority 2016, dated 2021).
